Like-named read-outs stand apart in the source and are kept apart here.
Columns and labels:
[1] = system: human breast cancer MCF-7 subcutaneous xenograft tumor; assay type: in vivo
Text: Cell line-derived xenograft (CDX) BALB/c nude mice that were female, 6- to 8-week old, weighed 20 g, and subcutaneously implanted with human tumor cell line derived from MCF-7 breast cancer patients were used. A total of 150 mice were needed, which were purchased from Beijing Vital River Laboratory Animal Technology Co., Ltd.
BALB/c nude mice that were female, 6- to 8-week old, and weighed approximately 20 g were used. The mice were maintained in separate ventilated cages (10 mice per cage) in a special pathogen-free environment. All the cages, bedding and water were disinfected prior to use. All the animals were free to access a standard certified commercial laboratory diet. A total of 150 mice were purchased from Beijing Vital River Laboratory Animal Technology Co., Ltd. for research. Each mouse was implanted subcutaneously with an estrogen tablets (0.18 mg/tablet, 60-day sustained release) in the left back. After 3 days, each mouse was implanted with tumor cells (10×10^6 in 0.2 mL of phosphate buffer) subcutaneously in the right back for tumor growth. Administration was started when the average tumor volume reached about 150 to 200 mm^3. The test compounds were orally administered daily, and the administration dosages were as shown in the above table. The tumor volumes were measured twice a week using a two-dimensional caliper. The volumes were expressed in cubic millimeters and calculated by the following formula: V=0.5 a×b^2, wherein a and b were the long diameter and short diameter of a tumor, respectively. The anti-tumor efficacy was determined by dividing the average increase of the tumor volumes of the animals treated with a compound by the average increase of the tumor volumes of the animals without being treated with the compound.

[2] = system: human lung cancer LU-01-0393 subcutaneous xenograft tumor; experiment: In vivo drug efficacy study (II): human lung cancer LU-01-0393 subcutaneous xenograft tumor model; design: species or system BALB/c nude mice; details: 120.0 mg/kg PO QD × 3W
Text: Cell line-derived xenograft (CDX) BALB/c nude mice that were female, 6- to 8-week old, weighed 17 to 20 g, and subcutaneously implanted with human tumor cell line derived from LU-01-0393 lung cancer patient were used. A total of 72 mice were needed and were purchased from Shanghai Xipuer-Bikai Experimental Animal Co., Ltd. Human lung cancer LU-01-0393 tumor (i.e., non-small cell lung cancer) was originally derived from a clinical sample of a surgical resection. It was defined as passage PO after being inoculated to nude mice, and the tumor of passage PO was re-inoculated to nude mice and was then defined as passage P1, and so forth. Passage was performed in nude mice. LU-01-0393-FP5 was obtained from the transplantation after the recovery of P4. This study would use the tumor tissue of passage FP6.
BALB/c nude mice that were female, 6- to 8-week old, and weighed approximately 17 to 20 g were used. The mice were maintained in separate ventilated cages in a special pathogen-free environment. All the cages, bedding and water were disinfected prior to use. All the animals were free to access a standard certified commercial laboratory diet. A total of 72 mice purchased from Shanghai Xipuer-Bikai Experimental Animal Co., Ltd. were used for the study. The LU-01-0393 FP6 tumor tissue was cut to 20 to 30 mm^3 and inoculated to the right back of each mouse to wait for the tumor growth. When the average tumor volume reached about 171 mm^3, the mice were randomized into groups and administered. The test compounds were orally administered daily, and the administration dosages were as shown in the above table. The tumor diameters were measured twice a week using a two-dimensional caliper. The tumor volumes were calculated by the following formula: V=0.5 a×b^2, wherein a and b were the long diameter and the short diameter of a tumor, respectively. The anti-tumor efficacy was determined by dividing the average increase of the tumor volumes of the animals treated with a compound by the average increase of the tumor volumes of the animals without being treated with the compound.

[3] = system: MCF-7 breast cancer cells; experiment: Inhibition assay of the A crystal form of WX_1 on MCF-7 breast cancer cell proliferation (CellTiter-Glo); assay type: cell-based; details: Homo sapiens, MCF7, 144 h; MCF-7 cells, 6 days
Method: (§1) RPMI 1640 medium, fetal bovine serum and penicillin/streptomycin as antibiotics were purchased from Promega (Madison, Wis.). The MCF-7 cell line was purchased from the European Collection of Authenticated Cell Cultures (ECACC). Envision MultiLabel Plate Reader (PerkinElmer).
(§2) MCF-7 cells were seeded in a black 384-well plate with 45 μL of cell suspension (containing 200 MCF-7 cells) per well. The cell plate was placed in a carbon dioxide incubator for overnight culture.
(§3) The test compounds were diluted 3 times to the 10th concentration with Bravo, i.e., diluted from 10 μM to 0.508 nM, and a duplicate-well experiment was set. The medium was added to the middle plate in an amount of 49 μL per well. The gradient-diluted compounds were transferred in an amount of 1 μL per well to the middle plate according to the corresponding positions, and the mixture was mixed evenly and transferred to the cell plate in an amount of 5 μL per well. The cell plate was incubated in a carbon dioxide incubator for 6 days.
Promega CellTiter-Glo reagent was added to the cell plate in an amount of […] per well, and incubated for 10 minutes at room temperature to stabilize the luminescence signal. Reading was performed using a PerkinElmer Envision Multilabel Plate Reader.

MDA-MB-436 cells = experiment: Inhibition assay of the compound of formula (I) on the proliferation of MDA-MB-436 cells (CellTiter-Glo); assay type: cell-based; details: Homo sapiens, 144 h, 6 days
Method: as §1, with “and the MDA-MB-436 cell line were” for “was”, “Multilabel” for “MultiLabel”
MDA-MB-436 cells were seeded in a black 384-well plate with 45 μL of cell suspension (containing 585 MDA-MB-436 cells) per well. The cell plate was placed in a carbon dioxide incubator for overnight culture.
as §3
(§4) Promega CellTiter-Glo reagent was added to the cell plate in an amount of 25 μL per well, and incubated for 10 minutes at room temperature to stabilize the luminescence signal. Reading was performed using a PerkinElmer Envision Multilabel Plate Reader.

MCF-7 cells = experiment: Inhibition assay of the compound of formula (I) on the proliferation of MCF-7 cells (CellTiter-Glo); assay type: cell-based; details: Homo sapiens, MCF7, 144 h, 6 days
Method: as §1, with “and the MDA-MB-436 cell line were” for “was”, “Multilabel” for “MultiLabel”
as §2, §3, §4

[4] = Solubility tests in different vehicles (HPLC); assay type: physicochemical; details: 26 °C, thermodynamic from solid, room temperature 25 to 27° C.
Method: Samples (about 2 mg) (if the sample was a salt, the required amount of the salt was calculated according to the salt factor in accordance with the criterion that the compound of formula (I) was 2 mg) were weighed respectively and added to a 1.5 mL glass vial. Different vehicles (1 mL) were then added respectively. The above-mentioned suspension was placed on a magnetic stirrer for stirring (room temperature 25 to 27° C.). After stirring for 24 hours, samples were taken. The samples were first centrifuged, and the supernatants were taken. After appropriate dilution according to the situation of the dissolution, the concentrations were determined by HPLC. The results were as follows:
Notes: • FaSSIF: to simulate the intestinal fluid in the small intestine of human in a hunger state before meal; • FeSSIF: to simulate the intestinal fluid in the small intestine of human in a full state after meal; • SGF: to simulate the gastric juice in the empty stomach of human in a hunger state

| Compound | Tumor volume Day 0 ([1]; 25.0 mg/kg PO QD × 3W) | Tumor volume Day 7 ([1]; 25.0 mg/kg PO QD × 3W) | Tumor volume Day 0 [2] | Tumor volume Day 7 [2] | Tumor volume Day 14 [2] | Tumor volume Day 21 [2] | IC50 [3] | Tumor volume Day 14 ([1]; 25.0 mg/kg PO QD × 3W) | Tumor volume Day 20 ([1]; 25.0 mg/kg PO QD × 3W) | Tumor volume Day 0 ([1]; 50.0 mg/kg PO QD × 3W) | Tumor volume Day 7 ([1]; 50.0 mg/kg PO QD × 3W) | Tumor volume Day 14 ([1]; 50.0 mg/kg PO QD × 3W) | Tumor volume Day 20 ([1]; 50.0 mg/kg PO QD × 3W) | tolerability ([1]; mouse, in vivo) | IC50 (MDA-MB-436 cells) | IC50 (MCF-7 cells) | solubility at 24 h ([4]; simulated gastric fluid, SGF, read-out: Solubility SGF) | solubility at 24 h ([4]; FaSSIF, read-out: Solubility FaSSIF) | solubility at 24 h ([4]; FeSSIF, read-out: Solubility FeSSIF) | solubility at 24 h ([4]; water, water, H2O, read-out: Solubility H2O) |
| --- | --- | --- | --- | --- | --- | --- | --- | --- | --- | --- | --- | --- | --- | --- | --- | --- | --- | --- | --- | --- |
| CCN1CCN(Cc2ccc(Nc3ncc(F)c(-c4cc(F)c5nc(C)n(C(C)C)c5c4)n3)nc2)CC1 [LY2835219, Abemaciclib] | 153 mm^3 | 155 mm^3 | 172 ± 23 mm^3 | 228 ± 26 mm^3 | 255 ± 30 mm^3 | 272 ± 36 mm^3 | 185 nM |  |  |  |  |  |  |  |  |  |  |  |  |  |
| CC(=O)c1c(C)c2cnc(Nc3ccc(N4CCNCC4)cn3)nc2n(C2CCCC2)c1=O [Palbociclib] | 153 mm^3 | 203 mm^3 | 170 ± 24 mm^3 | 261 ± 38 mm^3 | 266 ± 41 mm^3 | 251 ± 34 mm^3 | 88.2 nM | 252 mm^3 | 222 mm^3 | 153 mm^3 | 180 mm^3 | 197 mm^3 | 137 mm^3 | intolerable |  |  |  |  |  |  |
| CC(C)c1c2cc(-c3nc(Nc4ccc(N5CCNCC5)cn4)ncc3F)ccc2nn1C [compound of formula (I)] |  |  |  |  |  |  |  |  |  |  |  |  |  |  | 328 nM | 32.1 nM | > 2000 µg/mL | 13 µg/mL | 1600 µg/mL | 10 µg/mL |
| CCN1CCN(Cc2ccc(Nc3ncc(F)c(-c4ccc5nn(C)c(C(C)C)c5c4)n3)nc2)CC1 [compound of formula (a), reference compound] |  |  |  |  |  |  |  |  |  |  |  |  |  |  | 2100 nM | 240 nM |  |  |  |  |

Reference: US10626107B2, “Crystal form, salt type of substituted 2-hydro-pyrazole derivative and preparation method therefor” (CHIA TAI TIANQING PHARMACEUTICAL GROUP CO., LTD., priority 2016, dated 2020)
